According to paper PMC9405973, “Altered Conformational Landscape upon Sensing Guanine Nucleotides in a Disease Mutant of Elongation Factor-like 1 (EFL1) GTPase” (Biomolecules, 2022):
Where “and” joins values, the source holds several entries; their conditions need not be identical. Equal values may be shown once. Read-outs that look alike come from different tables or passages of the source.

Tests used:
[1] = target: T1, Efl1 R1086Q•Sdo1 (Saccharomyces cerevisiae, UniProt P53893, R1086Q); experiment: ITC: binding of guanine nucleotides to pre-formed complex Efl1 R1086Q•Sdo1; conditions: for ΔCpb: from ΔHb at 25–35 °C; for -TΔs / Δg / Δh / κ (heterotropic cooperativity): Effect of Mg^2+
T1 construct: made in house; host or cells: Efl1: Saccharomyces cerevisiae; Sdo1: Escherichia coli C41
T1 sequence (P53893 whole entry R1086Q): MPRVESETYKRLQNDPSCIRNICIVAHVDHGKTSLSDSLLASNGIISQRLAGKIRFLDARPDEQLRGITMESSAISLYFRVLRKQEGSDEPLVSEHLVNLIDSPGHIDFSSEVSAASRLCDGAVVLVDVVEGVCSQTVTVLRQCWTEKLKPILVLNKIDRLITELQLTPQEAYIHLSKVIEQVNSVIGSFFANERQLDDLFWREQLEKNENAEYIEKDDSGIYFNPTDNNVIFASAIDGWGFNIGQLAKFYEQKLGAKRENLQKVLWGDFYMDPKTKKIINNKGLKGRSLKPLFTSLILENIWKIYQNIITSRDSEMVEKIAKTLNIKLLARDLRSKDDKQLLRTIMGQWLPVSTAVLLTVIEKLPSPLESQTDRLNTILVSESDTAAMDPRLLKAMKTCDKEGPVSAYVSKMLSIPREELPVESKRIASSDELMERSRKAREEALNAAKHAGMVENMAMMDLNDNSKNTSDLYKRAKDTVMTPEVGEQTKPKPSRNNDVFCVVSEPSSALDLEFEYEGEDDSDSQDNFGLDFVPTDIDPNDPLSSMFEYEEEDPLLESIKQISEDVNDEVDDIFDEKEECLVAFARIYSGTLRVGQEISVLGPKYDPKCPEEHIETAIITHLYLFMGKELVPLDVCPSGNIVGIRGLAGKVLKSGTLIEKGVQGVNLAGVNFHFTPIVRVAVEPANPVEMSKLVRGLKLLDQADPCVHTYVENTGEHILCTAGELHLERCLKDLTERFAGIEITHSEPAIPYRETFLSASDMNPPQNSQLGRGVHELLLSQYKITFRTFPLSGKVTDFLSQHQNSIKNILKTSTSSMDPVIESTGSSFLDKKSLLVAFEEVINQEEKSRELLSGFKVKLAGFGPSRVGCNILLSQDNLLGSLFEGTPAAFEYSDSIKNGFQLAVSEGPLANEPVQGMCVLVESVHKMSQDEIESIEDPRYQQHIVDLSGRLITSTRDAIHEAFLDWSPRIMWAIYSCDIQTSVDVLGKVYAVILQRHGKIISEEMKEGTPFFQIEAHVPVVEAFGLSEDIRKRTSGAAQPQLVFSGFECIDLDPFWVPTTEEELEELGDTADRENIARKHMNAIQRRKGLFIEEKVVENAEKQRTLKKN
T1 sequence (Q07953 whole entry, further chain): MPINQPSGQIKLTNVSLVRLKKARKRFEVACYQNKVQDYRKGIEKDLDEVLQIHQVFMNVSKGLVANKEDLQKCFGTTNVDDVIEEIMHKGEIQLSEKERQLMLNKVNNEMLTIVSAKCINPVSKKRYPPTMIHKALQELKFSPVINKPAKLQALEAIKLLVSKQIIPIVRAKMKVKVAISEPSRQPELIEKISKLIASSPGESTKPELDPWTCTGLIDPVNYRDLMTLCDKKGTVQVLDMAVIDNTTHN
Procedure: All calorimetric measurements were carried out using MicroCal^TM iTC200 System (GE Healthcare, Northampton, MA, USA) in a temperature range of 25–35 °C. Experiments were performed in a buffer consisting of 50 mM Tris-HCl (pH 8.0), 150 mM NaCl, 100 µM DTT, and 5% glycerol. In the titrations with Mg^2+-bound nucleotides, both the ligand and protein solutions contained 5 mM MgCl2. In the case of titrations with Mg^2+-free nucleotide, both the ligand and protein solutions were supplemented with 2 mM EDTA to sequester any residual trace of metal ions in solution. Protein samples and ligands were prepared in the exact same buffer prior to each titration. Protein concentration in the cell comprised 30–50 µM GTPase, while the ligand concentration in the syringe was 2–3 mM for GTP, MgGTP, GDP, and MgGDP. To ensure measuring the interaction of the complex Efl1 R1086Q•Sdo1 with the nucleotide, an eight-fold concentration excess of Sdo1 was used compared with that of the enzyme. […] The titration schedule consisted of 15–20 consecutive injections of the ligand with 5 min intervals between injections and a stirring rate of 700 rpm. The dilution heat of the ligand was obtained by adding the ligand to a buffer solution under identical conditions and with the same injection schedule used for the protein sample. All samples were degassed for 10 min prior to the experiment.
The binding isotherms obtained for the isolated GTPase in the presence of Mg(II) were analysed using a ternary model in which the protein can bind to the free nucleotide (G(D)TP) or that bound to one magnesium ion (MgG(D)TP); additionally, GTP may also exist in the form of Mg2GTP, which is not recognised by the protein. The derivation of this coupled-equilibria model can be reviewed in [6, 31]. The binding constant (Kb), the enthalpy change (∆Hb), and the stoichiometry (n) were obtained with the non-linear routines implemented in Origin 5.0 (OriginLab, Co., Northampton, MA, USA) using a one-binding-site model as described in [32, 33]. The heterotropic cooperativity for the binding of guanine nucleotides and Sdo1 to Efl1 R1086Q were calculated as previously described in [6, 32]. The cooperative effects of Mg(II) on the binding of guanine nucleotides to Efl1 R1086Q alone and bound to Sdo1 were calculated as follows:κ = KE-MG/KE-G κ = KES-MG/KES-G Δh = ΔHE-MG − ΔHE-G Δh = ΔHES-MG − ΔHES-G where subscripts E-MG and E-G stand for the association of the metal-bound and metal-free guanine nucleotide with mutant Efl1, respectively. Corresponding expressions applied to the heterotropic cooperativity of the binding of nucleotides to the preformed complex, Efl1•Sdo1 (ES).
The impact of Sdo1 on the binding of Efl1 R1086Q to guanine nucleotides in the presence of magnesium ions is contained in KES-MG and ΔHES-MG relative to the KE-S and ΔHE-S values; analogous ratios report the effects in the absence of Mg(II):κ = KES-MG/KE-S κ = KES-G/KE-G Δh = ΔHES-MG − ΔHE-S Δh = ΔHES-G − ΔHE-G
The corresponding cooperative entropy change was calculated as:TΔs = Δh − Δg = Δh + RTlnκ
The detailed methodology and equations to compute the changes in the accessible surface area (∆ASA) of the GTPase upon binding to nucleotides and the ∆S energetic-based parameters are reported in [6]. Briefly, the water-accessible areas (ASAs) were computed using programme NACCESS, while the changes in accessible surface area (ΔASA) upon the formation of each GTPase–nucleotide complex were estimated considering the difference between the complex and the sum of the free interacting partners. The calculated polar (ΔASAp) and apolar (ΔASAap) area changes were subsequently used to estimate the free molecular partners. […]

[2] = test system: wild-type Efl1; conditions: cited from earlier work; for -TΔSb / Kd / ΔGb / ΔHb / ΔCpb: guanine nucleotide
[3] = test system: wild-type Efl1•Sdo1; set-up: method as in PMID 30780079; conditions: −Mg^2+, cited from earlier work
[4] = Effect of Mg^2+, wild-type Efl1 − Sdo1, 30 °C
[5] = Effect of Sdo1, wild-type Efl1 − Mg^2+, 30 °C

Q: Which “-TΔSb” value ([1]; +Mg^2+, 25 °C) does the source give for `Nc1nc2c(ncn2[C@@H]2O[C@H](COP(=O)(O)OP(=O)(O)OP(=O)(O)O)[C@@H](O)[C@H]2O)c(=O)[nH]1` [GTP] here?
A: -5.1 kcal/mol

Q: And the ΔGb ([1]; +Mg^2+, 25 °C)?
A: -6.2 kcal/mol

Q: And the ΔHb ([1]; +Mg^2+, 25 °C)?
A: -1.1 ± 0.04 kcal/mol

Q: And the “-TΔSb” value ([1]; +Mg^2+, 30 °C)?
A: -2.9 kcal/mol

Q: And the “Nconfres (number of residues changing conformation, absolute value)” value ([1]; +Mg^2+, 30 °C)?
A: 36

Q: And the “Nconfrotb (number of routable bonds changing conformation, absolute value)” value ([1]; +Mg^2+, 30 °C)?
A: 47

Q: What about the ΔCpconf ([1]; +Mg^2+, 30 °C) of the same compound?
A: −375 cal mol^−1 K^−1

Q: What about the ΔCprb ([1]; +Mg^2+, 30 °C) of the same compound?
A: −25 cal mol^−1 K^−1

Q: And the ΔGb ([1]; +Mg^2+, 30 °C)?
A: -5.9 kcal/mol

Q: What about the ΔHb ([1]; +Mg^2+, 30 °C) of the same compound?
A: -3.0 ± 0.2 kcal/mol

Q: And the ΔSb ([1]; +Mg^2+, 30 °C)?
A: 9 cal mol^−1 K^−1

Q: What about the ΔSconf ([1]; +Mg^2+, 30 °C) of the same compound?
A: −78 cal mol^−1 K^−1

Q: And the ΔSsolv ([1]; +Mg^2+, 30 °C)?
A: 96 cal mol^−1 K^−1

Q: And the “−ΔASAconf” value ([1]; +Mg^2+, 30 °C)?
A: 1683 Å^2

Q: And the “-TΔSb” value ([1]; +Mg^2+, 35 °C)?
A: -0.9 kcal/mol

Q: And the ΔGb ([1]; +Mg^2+, 35 °C)?
A: -6.0 kcal/mol

Q: What about the ΔHb ([1]; +Mg^2+, 35 °C) of the same compound?
A: -5.1 ± 0.4 kcal/mol

Q: What about the ΔCpb ([1]; +Mg^2+) of the same compound?
A: −400 cal mol^−1 K^−1 and −400 ± 11 cal mol^−1 K^−1

Q: And the “-TΔs” value ([1]; Efl1 R1086Q + Sdo1, 25 °C)?
A: -2.6 kcal/mol

Q: What about the Δg ([1]; Efl1 R1086Q + Sdo1, 25 °C) of the same compound?
A: 0.3 kcal/mol

Q: What about the Δh ([1]; Efl1 R1086Q + Sdo1, 25 °C) of the same compound?
A: 2.9 kcal/mol

Q: And the “κ (heterotropic cooperativity)” value ([1]; Efl1 R1086Q + Sdo1, 25 °C)?
A: 0.6

Q: And the “-TΔs” value ([1]; Efl1 R1086Q + Sdo1, 30 °C)?
A: -0.3 kcal/mol

Q: And the Δg ([1]; Efl1 R1086Q + Sdo1, 30 °C)?
A: 0.6 kcal/mol

Q: And the Δh ([1]; Efl1 R1086Q + Sdo1, 30 °C)?
A: 0.9 kcal/mol

Q: What about the “κ (heterotropic cooperativity)” value ([1]; Efl1 R1086Q + Sdo1, 30 °C) of the same compound?
A: 0.3

Q: What about the “-TΔs” value ([1]; Efl1 R1086Q + Sdo1, 35 °C) of the same compound?
A: 1.9 kcal/mol

Q: And the Δg ([1]; Efl1 R1086Q + Sdo1, 35 °C)?
A: 0.5 kcal/mol

Q: And the Δh ([1]; Efl1 R1086Q + Sdo1, 35 °C)?
A: -1.4 kcal/mol

Q: And the “κ (heterotropic cooperativity)” value ([1]; Efl1 R1086Q + Sdo1, 35 °C)?
A: 0.5

Q: And the Kd ([1]; +Mg^2+, 25 °C)?
A: 29 ± 5 µM

Q: And the Kd ([1]; +Mg^2+, 30 °C)?
A: 58 ± 7 µM

Q: And the Kd ([1]; +Mg^2+, 35 °C)?
A: 52 ± 7 µM

Q: What about the Kd ([1]; −Mg^2+, 25 °C) of the same compound?
A: 17 ± 5 µM

Q: What about the Kd ([1]; −Mg^2+, 30 °C) of the same compound?
A: 23 ± 7 µM

Q: And the Kd ([1]; −Mg^2+, 35 °C)?
A: 25 ± 7 µM

Q: What about the “fold decrease in affinity of the preformed complex compared with the free enzyme” value ([1]; absence of magnesium ions) of the same compound?
A: 2–4 times

Q: What about the “-TΔSb” value ([1]; −Mg^2+, 25 °C) of the same compound?
A: -2.5 kcal/mol

Q: What about the ΔGb ([1]; −Mg^2+, 25 °C) of the same compound?
A: -6.5 kcal/mol

Q: What about the ΔHb ([1]; −Mg^2+, 25 °C) of the same compound?
A: -4.0 ± 0.2 kcal/mol

Q: What about the “-TΔSb” value ([1]; −Mg^2+, 30 °C) of the same compound?
A: -2.6 kcal/mol

Q: What about the “Nconfres (number of residues changing conformation, absolute value)” value ([1]; −Mg^2+, 30 °C) of the same compound?
A: 4

Q: What about the “Nconfrotb (number of routable bonds changing conformation, absolute value)” value ([1]; −Mg^2+, 30 °C) of the same compound?
A: 14

Q: What about the ΔCpconf ([1]; −Mg^2+, 30 °C) of the same compound?
A: 41 cal mol^−1 K^−1

Q: What about the ΔGb ([1]; −Mg^2+, 30 °C) of the same compound?
A: -6.5 kcal/mol

Q: And the ΔHb ([1]; −Mg^2+, 30 °C)?
A: -3.9 ± 0.1 kcal/mol

Q: What about the ΔSb ([1]; −Mg^2+, 30 °C) of the same compound?
A: 9 cal mol^−1 K^−1

Q: What about the ΔSconf ([1]; −Mg^2+, 30 °C) of the same compound?
A: 24 cal mol^−1 K^−1

Q: What about the ΔSsolv ([1]; −Mg^2+, 30 °C) of the same compound?
A: −7 cal mol^−1 K^−1

Q: And the “−ΔASAconf” value ([1]; −Mg^2+, 30 °C)?
A: −184 Å^2

Q: And the “-TΔSb” value ([1]; −Mg^2+, 35 °C)?
A: -2.8 kcal/mol

Q: And the ΔGb ([1]; −Mg^2+, 35 °C)?
A: -6.5 kcal/mol

Q: What about the ΔHb ([1]; −Mg^2+, 35 °C) of the same compound?
A: -3.7 ± 0.4 kcal/mol

Q: And the ΔCpb ([1]; −Mg^2+)?
A: 30 cal mol^−1 K^−1 and 30 ± 6 cal mol^−1 K^−1

Q: What about the “-TΔs” value [2, 4] of the same compound?
A: -1.3 kcal/mol

Q: And the Δg [2, 4]?
A: -0.4 kcal/mol

Q: And the Δh [2, 4]?
A: 0.9 kcal/mol

Q: And the “κ (heterotropic cooperativity)” value [2, 4]?
A: 2

Q: And the “-TΔs” value [2, 5]?
A: -7.0 kcal/mol

Q: And the Δg [2, 5]?
A: -1.8 kcal/mol

Q: What about the Δh [2, 5] of the same compound?
A: 5.2 kcal/mol

Q: What about the “κ (heterotropic cooperativity)” value [2, 5] of the same compound?
A: 22.3

Q: And the “-TΔSb” value ([2]; +Mg^2+, 30 °C)?
A: 1.0 kcal/mol

Q: And the Kd ([2]; +Mg^2+, 30 °C)?
A: 125 µM

Q: What about the ΔGb ([2]; +Mg^2+, 30 °C) of the same compound?
A: -5.4 kcal/mol

Q: And the ΔHb ([2]; +Mg^2+, 30 °C)?
A: -6.4 ± 0.4 kcal/mol

Q: And the ΔCpb ([2]; +Mg^2+)?
A: −560 ± 23 cal mol^−1 K^−1 and −560 cal mol^−1 K^−1

Q: And the “-TΔSb” value ([2]; −Mg^2+, 30 °C)?
A: 2.3 kcal/mol

Q: What about the Kd ([2]; −Mg^2+, 30 °C) of the same compound?
A: 250 µM

Q: And the ΔGb ([2]; −Mg^2+, 30 °C)?
A: -5.0 kcal/mol

Q: And the ΔHb ([2]; −Mg^2+, 30 °C)?
A: -7.3 ± 0.3 kcal/mol

Q: And the ΔCpb ([2]; −Mg^2+)?
A: −700 ± 34 cal mol^−1 K^−1 and −700 cal mol^−1 K^−1

Q: And the “fold by which Sdo1 favoured the interaction with GTP” value ([2]; wild-type Efl1)?
A: 20–40 fold

Q: What about the “-TΔSb” value ([3]; 30 °C) of the same compound?
A: -4.7 kcal/mol

Q: And the Kd ([3]; 30 °C)?
A: 11 µM

Q: What about the ΔGb ([3]; 30 °C) of the same compound?
A: -6.8 kcal/mol

Q: What about the ΔHb ([3]; 30 °C) of the same compound?
A: -2.1 ± 0.2 kcal/mol

Q: And the ΔCpb [3]?
A: −90 cal mol^−1 K^−1 and −90 ± 5 cal mol^−1 K^−1
